Laboratory results as given in US10793550B2, “4-piperidin-n-(pyrimidin-4-yl)chroman-7-sulfonamide derivatives as sodium channel inhibitors” (GENENTECH, INC., priority 2017, dated 2020).

Legend:
[1] = target: T1, hNav1.7 (Homo sapiens, UniProt Q15858); test: Tritiated compound competitive binding to membranes from cells expressing hNav1.7 and the β1 subunit; details: competition with 100 pM [3H]compound, 18 h, room temperature; "this model or another representative model of inhibition"; read-out: Nav1.7 inhib. in vitro
T1 construct: expressed in transfected cells
T1 sequence (Q15858 whole entry): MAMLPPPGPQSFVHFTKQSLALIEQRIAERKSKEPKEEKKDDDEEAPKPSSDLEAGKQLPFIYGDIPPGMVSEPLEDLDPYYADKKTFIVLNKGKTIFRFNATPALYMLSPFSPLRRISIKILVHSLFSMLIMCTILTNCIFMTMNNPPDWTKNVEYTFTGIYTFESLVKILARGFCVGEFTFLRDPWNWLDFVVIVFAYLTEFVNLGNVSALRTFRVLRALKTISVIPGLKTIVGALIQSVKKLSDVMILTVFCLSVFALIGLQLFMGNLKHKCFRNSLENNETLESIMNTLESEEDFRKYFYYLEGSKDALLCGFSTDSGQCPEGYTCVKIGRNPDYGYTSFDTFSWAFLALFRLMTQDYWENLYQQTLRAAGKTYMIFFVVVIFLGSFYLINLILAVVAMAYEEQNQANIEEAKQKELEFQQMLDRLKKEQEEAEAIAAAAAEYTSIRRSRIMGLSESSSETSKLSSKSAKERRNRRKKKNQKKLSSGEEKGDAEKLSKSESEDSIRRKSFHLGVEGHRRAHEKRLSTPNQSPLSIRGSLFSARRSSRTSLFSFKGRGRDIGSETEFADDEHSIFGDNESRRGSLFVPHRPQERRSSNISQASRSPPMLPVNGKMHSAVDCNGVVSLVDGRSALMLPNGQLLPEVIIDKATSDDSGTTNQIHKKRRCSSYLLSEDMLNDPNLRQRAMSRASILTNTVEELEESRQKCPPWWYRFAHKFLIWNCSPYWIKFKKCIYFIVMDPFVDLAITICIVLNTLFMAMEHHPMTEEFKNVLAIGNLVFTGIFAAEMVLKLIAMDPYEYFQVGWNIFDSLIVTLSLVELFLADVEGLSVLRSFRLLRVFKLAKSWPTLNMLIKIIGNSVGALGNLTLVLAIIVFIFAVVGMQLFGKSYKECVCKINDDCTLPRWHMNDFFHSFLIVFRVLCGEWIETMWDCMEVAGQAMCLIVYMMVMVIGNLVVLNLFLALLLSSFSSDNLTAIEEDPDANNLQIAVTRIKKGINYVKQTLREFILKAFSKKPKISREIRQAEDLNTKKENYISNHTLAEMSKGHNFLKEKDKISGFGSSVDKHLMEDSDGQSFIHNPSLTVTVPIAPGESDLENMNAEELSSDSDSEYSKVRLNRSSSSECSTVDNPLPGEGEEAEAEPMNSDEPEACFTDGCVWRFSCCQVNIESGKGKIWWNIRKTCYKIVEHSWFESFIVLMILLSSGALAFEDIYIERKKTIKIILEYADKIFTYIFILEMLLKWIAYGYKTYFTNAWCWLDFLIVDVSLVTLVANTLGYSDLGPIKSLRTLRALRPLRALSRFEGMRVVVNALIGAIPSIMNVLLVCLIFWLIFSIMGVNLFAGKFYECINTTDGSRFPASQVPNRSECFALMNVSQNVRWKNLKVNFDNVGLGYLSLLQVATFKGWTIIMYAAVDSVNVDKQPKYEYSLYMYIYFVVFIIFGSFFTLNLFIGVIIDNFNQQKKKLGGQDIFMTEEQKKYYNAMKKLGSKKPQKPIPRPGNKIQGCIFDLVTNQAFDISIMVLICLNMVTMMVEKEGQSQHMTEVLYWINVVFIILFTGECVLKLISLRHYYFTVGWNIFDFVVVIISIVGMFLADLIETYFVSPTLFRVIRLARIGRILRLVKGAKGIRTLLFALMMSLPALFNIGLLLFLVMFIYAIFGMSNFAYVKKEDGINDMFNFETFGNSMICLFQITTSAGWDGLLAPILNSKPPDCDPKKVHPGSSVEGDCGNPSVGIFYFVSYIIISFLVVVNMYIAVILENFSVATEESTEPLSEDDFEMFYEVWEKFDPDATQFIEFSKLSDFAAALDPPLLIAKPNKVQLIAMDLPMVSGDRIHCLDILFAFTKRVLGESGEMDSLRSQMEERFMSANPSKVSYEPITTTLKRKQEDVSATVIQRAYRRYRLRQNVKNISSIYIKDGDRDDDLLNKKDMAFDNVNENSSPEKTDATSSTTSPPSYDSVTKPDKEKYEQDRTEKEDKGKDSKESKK
T1 sequence (Q07699 19-218 partner): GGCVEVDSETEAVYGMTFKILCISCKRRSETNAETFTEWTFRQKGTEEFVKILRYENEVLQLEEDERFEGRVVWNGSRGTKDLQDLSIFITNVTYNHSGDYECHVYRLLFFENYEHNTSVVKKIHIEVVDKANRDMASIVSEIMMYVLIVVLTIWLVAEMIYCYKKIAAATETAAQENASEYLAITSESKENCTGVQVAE
Experimental: Example 5: Tritiated Compound Binding to Membranes Isolated from Cells that Heterologously Express hNav1.7 and the β1 Subunit
Preparation of membranes containing recombinantly expressed sodium channels: Frozen recombinant cell pellets were thawed on ice and diluted to 4 times the cell pellet weight with ice cold 50 mM Tris HCl, pH 7.4 buffer. The cell suspensions were homogenized on ice using a motorized glass dounce homogeniser. Homogenates were further diluted 8.4 times with ice cold 50 mM Tris HCl, pH 7.4 buffer and then centrifuged at 200×g at 4° C. for 15 min. The supernatants were collected and centrifuged at 10000×g at 4° C. for 50 min. The pellets were then re-suspended in 100 mM NaCl, 20 mM Tris HCl, pH 7.4 buffer containing 1% v/v protease inhibitors (Calbiochem) and re-homogenized on ice. The homogenized membranes were then processed through a syringe equipped with a 26 gauge needle. Protein concentrations were determined by Bradford Assay and the membranes were stored at −80° C.
Radioligand Binding Studies:
Saturation experiments. A competitive NaV1.7 inhibitor having a methyl group was tritiated. Three tritiums were incorporated in place of methyl hydrogens to generate [^3H]compound. Binding of this radioligand was performed in 5 mL borosilicate glass test tubes at room temperature. Binding was initiated by adding membranes to increasing concentrations of [^3H]compound in 100 mM NaCl, 20 mM Tris HCl, pH 7.4 buffer containing 0.01% w/v bovine serum albumin (BSA) for 18h. Non-specific binding was determined in the presence of 1 μM unlabeled compound. After 18h, the reactants were filtered through GF/C glass fiber filters presoaked in 0.5% w/v polyethylene imine. Filters were washed with 15 mL ice cold 100 mM NaCl, 20 mM Tris HCl, pH7.4 buffer containing 0.25% BSA to separate bound from free ligand. [^3H]compound bound to filters was quantified by liquid scintillation counting.
Competitive Binding Experiments:
Binding reactions were performed in 96-well polypropylene plates at room temperature for 18h. In 360 μL, membranes were incubated with 100 pM [^3H]compound and increasing concentrations of Test Compound. Non-specific binding was defined in the presence of 1 μM unlabeled compound. Reactions were transferred and filtered through 96-well glass fiber/C filter plates presoaked with 0.5% polyethylene imine. The filtered reactions were washed 5 times with 200 μL ice cold buffer containing 0.25% BSA. Bound radioactivity was determined by liquid scintillation counting.
Data Analysis: For saturation experiments, non-specific binding was subtracted from total binding to provide specific binding and these values were recalculated in terms of pmol ligand bound per mg protein. Saturation curves were constructed and dissociation constants were calculated using the single site ligand binding model: Beq=(Bmax*X)/(X+Kd), where Beq is the amount of ligand bound at equilibrium, Bmax is the maximum receptor density, Kd is the dissociation constant for the ligand, and X is the free ligand concentration. For competition studies percent inhibition was determined and IC50 values were calculated using a 4 parameter logistic model (% inhibition=(A+((B−A)/(1+((x/C)^D)))) using XLfit, where A and B are the maximal and minimum inhibition respectively, C is the IC50 concentration and D is the (Hill) slope.

[2] = In vivo pharmacokinetic experiments (compound clearance in rats); details: rat; male rats, IV administration, plasma clearance; read-out: PK (CLp, rat)
Experimental: Example 6: In Vivo Pharmacokinetic Experiments (Compound Clearance in Rats)
In vivo clearance (CLp) of certain compounds was measured in order to evaluate whether these compounds were likely to be good candidates for development. Male rats were housed at controlled temperature and humidity in an alternating 12 hr light/dark cycle with access to food and water ad libitum. All in vivo studies were performed in accordance with Institutional Animal Care and Use Committee guidelines and in harmony with the Guide for Laboratory Animal Care and Use. Rats were administered IV administration of compound. Plasma was harvested from blood samples that were collected from each animal at various timepoints following the administration of compound. Plasma concentration of compound was determined by mass spectrometer, and pharmacokinetic analysis was performed using non-compartmental method using Phoenix WinNonlin. Following oral administration, percent bioavailability was determined for each animal by dividing the dose-normalized area under the plasma concentration-time curve from time 0 to the last measured concentration (AUC0-tlast) obtained following each oral dose by the mean dose-normalized AUC0-tlast of the animals dosed by IV injection.
CLp values above about 40 mL/min/kg in Example 6 are considered to be highly cleared from the body after administration of a compound to a subject, meaning that the exposure may be insufficient to be treated for a disease or disorder as provided herein.

IC50 [1] [nM] | clearance [2] [mL/min/kg] | SMILES
1.1 | > 60 | O=S(=O)(Nc1ncns1)c1ccc2c(c1)OCC[C@@H]2N1CC[C@@](O)(C(F)(F)F)C[C@H]1c1ccc(F)cc1 [A]
< 0.5 | > 60 | O=S(=O)(Nc1ncns1)c1cc2c(cc1F)[C@@H](N1CC[C@@H](C(F)(F)F)C[C@H]1c1ccccn1)CCO2 [B]
– | > 60 | O=S(=O)(Nc1ncns1)c1ccc2c(c1)OCC[C@@H]2N1CC[C@@H](C(F)(F)F)C[C@H]1c1ccc(F)cc1 [C]
– | > 60 | N#C[C@H]1CCN([C@H]2CCOc3cc(S(=O)(=O)Nc4ncns4)ccc32)C(c2ccc(F)cc2)C1 (stereo partly drawn) [D]
11 | – | N#C[C@H]1CCN([C@H]2CCOc3cc(S(=O)(=O)Nc4ncns4)ccc32)[C@@H](c2ccc(F)cc2)C1 [D]
2.6 | > 60 | O=S(=O)(Nc1ncns1)c1ccc2c(c1)OCC[C@@H]2N1CC[C@H](C(F)F)C[C@@H]1c1ccc(F)cc1 [E]
– | < 30 | O=S(=O)(Nc1ccncn1)c1cc2c(cc1F)[C@@H](N1CC[C@@H](C(F)(F)F)C[C@H]1c1ccccn1)CCO2 [Example 1, (S)-6-fluoro-4-((2S,4R)-2-(pyridin-2-yl)-4-(trifluoromethyl)piperidin-1-yl)-N-(pyrimidin-4-yl)chroman-7-sulfonamide]
0.5 | < 30 | O=S(=O)(Nc1ccncn1)c1cc2c(cc1F)[C@@H](N1CC[C@@](O)(C(F)(F)F)C[C@H]1c1ccc(F)cc1)CCO2 [Example 2, (S)-6-fluoro-4-((2S,4S)-2-(4-fluorophenyl)-4-hydroxy-4-(trifluoromethyl)piperidin-1-yl)-N-(pyrimidin-4-yl)chroman-7-sulfonamide]
2.2 | < 30 | O=S(=O)(Nc1ccncn1)c1cc2c(cc1F)[C@@H](N1CC[C@@H](OC(F)F)C[C@H]1c1ccc(F)cc1)CCO2 [Example 3, (S)-4-((2S,4R)-4-(difluoromethoxy)-2-(4-fluorophenyl)piperidin-1-yl)-6-fluoro-N-(pyrimidin-4-yl)chroman-7-sulfonamide]
3.4 | < 30 | C[C@@H]1C[C@H](c2cccc(C(F)(F)F)c2)CCN1[C@H]1CCOc2cc(S(=O)(=O)Nc3ccncn3)c(F)cc21 [Example 4, (S)-6-fluoro-4-((2R,4R)-2-methyl-4-(3-(trifluoromethyl)phenyl)piperidin-1-yl)-N-(pyrimidin-4-yl)chroman-7-sulfonamide]
8.8 | > 60 | CS(=O)(=O)[C@@H]1CCN([C@H]2CCOc3cc(S(=O)(=O)Nc4ncns4)ccc32)[C@H](c2ccc(F)cc2)C1 [F]
